Test results taken from paper PMC9699072 (Molecules, 2022).
Counter-ions that a name gives are not always drawn.

Columns and labels:
[1] = molecular target: T1, equine serum butyrylcholinesterase (BChE) (Equus caballus, UniProt P81908); test: Inhibition of BChE (Ellman's colorimetric assay); type: biochemical; details: ± SEM, n = 3, 10 min incubation 25 °C
T1 construct: equine serum butyrylcholinesterase (BChE, EC 3.1.1.8); purchased Sigma-Aldrich (Saint Louis, MO, USA); host or cells: equine serum
Source text: Given the available literature data on the ability of pyrazole derivatives to inhibit acetylcholinesterase (AChE) and human carboxylesterase-1 (CES), we performed an investigation of the esterase profile for new compounds 1a–j and 4a–j, including an evaluation of their inhibitory effect on the standard enzymes set: human erythrocyte AChE, equine serum butyrylcholinesterase (BChE), and porcine liver CES (Table 2). The applicability of this set of enzymes was shown by us earlier.
Human erythrocyte acetylcholinesterase (AChE, EC 3.1.1.7), equine serum butyrylcholinesterase (BChE, EC 3.1.1.8), porcine liver carboxylesterase (CES, EC 3.1.1.1), acetylthiocholine iodide (ATCh), butyrylthiocholine iodide (BTCh), 4-nitrophenol acetate (4-NPA), and 5,5′-dithio-bis-(2-nitrobenzoic acid) (DTNB) were purchased from Sigma-Aldrich (Saint Louis, MO, USA).
All the kinetic experiments were performed under standard conditions, according to the protocol of IPAC RAS for a reversible inhibitors study.
Ellman’s colorimetric assay was used to measure AChE and BChE activity in 0.1 M K/Na phosphate buffer at pH 7.5, 25 °C [86]. Final concentrations of reactants were 0.33 mM DTNB, 0.02 unit/mL of AChE or BChE, and 1 mM of substrate (ATCh or BTCh, respectively). Reagent blanks consisted of reaction mixtures without enzyme to assess non-enzymatic hydrolysis of substrates. Porcine liver CES activity was assessed colorimetrically in 0.1 M K/Na phosphate buffer with pH 8.0 at 25 °C, by measuring the absorbance of 4-nitrophenol at 405 nm. Final enzyme and substrate (4-NPA) concentrations were 0.02 unit/mL and 1 mM, respectively. Reagent blanks included all constituents except enzyme.
Test compounds were dissolved in DMSO. Reaction mixtures contained a final DMSO concentration of 2% (v/v). Enzyme inhibition was first assessed at a single concentration of 20 µM for each compound after a 10 min incubation at 25 °C in three separate experiments. Compounds inhibiting the enzyme by more than 30% were then selected for determination of the IC50 (inhibitor concentration resulting in 50% inhibition of control enzyme activity). […] Substrate was then added, and residual enzyme activity relative to an inhibitor-free control was measured using a FLUOStar Optima microplate reader (LabTech, Ortenberg, Germany).

[2] = tested on: normal human dermal fibroblast (NHDF) cultures; test: Cytotoxicity, MTT/formazan assay; type: cell-based; details: 72 h, MTT
Method: Cytotoxicity of compounds was evaluated using a culture of human dermal fibroblasts, which were isolated in the Laboratory of Cell Cultures of the Institute of Medical Cell Technologies, Ekaterinburg, Russia. Cells were seeded in 96-well plates in the inoculum dose of 2 × 10^5 cells/mL and cultured for 24 h in Dulbecco’s Modified Eagle Medium (DMEM), with 1% (w/v) glutamine in the presence of 10% (v/v) fetal bovine serum and gentamicin (50 mg/L) at 37 °C, with a humidified atmosphere of 5% (v/v) CO2. Then, compounds, which were solved in DMSO, were added to the wells at the final concentrations of 0.1, 1, 10, and 100 µM. The cells were incubated with compounds for 72 h, after which cell viability was assessed using the standard MTT assay. The assay was carried out in four replicates with negative (culture medium) and positive (solution of the cytotoxic drug camptothecin at a concentration of 3 mM) controls, and the solvent control (DMSO). […] The MTT staining of control cells was taken as 100%.

[3] = ORAC-FL (oxygen radical absorbance capacity) assay; type: biochemical; details: mean ± SEM, n = 3; 2 h; read-out: ORAC-FL IC50 (compound concentration required for 50% reduction of peroxyl radical) (converted)
[4] = set-up: method as in PMID 16997555; details: relative to EDA; cited from earlier work

T1 sequence (P81908 whole entry): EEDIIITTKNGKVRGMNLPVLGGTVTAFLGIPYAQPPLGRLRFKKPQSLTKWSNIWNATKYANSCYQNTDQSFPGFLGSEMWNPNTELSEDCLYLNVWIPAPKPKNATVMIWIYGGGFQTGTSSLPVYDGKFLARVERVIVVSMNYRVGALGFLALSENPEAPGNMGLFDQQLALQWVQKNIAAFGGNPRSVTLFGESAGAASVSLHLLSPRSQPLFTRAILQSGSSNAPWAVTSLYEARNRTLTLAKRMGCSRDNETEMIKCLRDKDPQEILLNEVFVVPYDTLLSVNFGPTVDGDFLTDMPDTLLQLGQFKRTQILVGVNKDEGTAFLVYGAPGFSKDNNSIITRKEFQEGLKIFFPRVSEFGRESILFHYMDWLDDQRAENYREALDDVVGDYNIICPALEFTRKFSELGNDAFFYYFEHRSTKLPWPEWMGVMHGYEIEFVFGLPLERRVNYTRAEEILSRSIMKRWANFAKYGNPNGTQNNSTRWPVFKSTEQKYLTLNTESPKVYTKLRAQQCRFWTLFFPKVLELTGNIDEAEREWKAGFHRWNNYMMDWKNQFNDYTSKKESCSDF

Molecule | inhibition at 20 µM [1] | IC50 [3] | other results
Cc1n[nH]c(O)c1N.Cl [4j, 4-Amino-3-methyl-1H-pyrazol-5-ol hydrochloride] | 13.9 ± 1.6% |  | Cytotoxicity against NHDF cell culture ([2]; 100 µM): neither of the compounds 4d,j showed cytotoxicity
CC1=NNC(=O)/C1=N\O [1j] | 3.8 ± 1.3% |  | 
Cl.Nc1c(C(F)(F)C(F)(F)F)n[nH]c1O.O [4g, 4-Amino-3-(pentafluoroethyl)-1H-pyrazol-5-ol hydrate hydrochloride] | 8.9 ± 1.4% |  | 
Nc1c(C(F)(F)C(F)(F)C(F)(F)C(F)(F)F)nn(-c2ccccc2)c1O [4c, 5-Hydroxy-1-phenyl-3-(nonafluorobuthyl)-1H-pyrazol-4-ammonium hydrochloride] | 10.3 ± 1.2% |  | 
Cl.Nc1c(C(F)(F)C(F)(F)F)nn(-c2ccccc2)c1O.O [4b, 4-Amino-3-(pentafluoroethyl)-1-phenyl-1H-pyrazol-5-ol hydrate hydrochloride] | 12.8 ± 1.5% |  | 
Cl.Nc1c(C(F)(F)C(F)(F)C(F)(F)F)n[nH]c1O.O [4h, 4-Amino-3-(heptafluoropropyl)-1H-pyrazol-5-ol hydrate hydrochloride] | 3.4 ± 0.9% |  | 
Oc1cc(C(F)(F)F)nn1-c1ccccc1 [CF3-EDA, 3-trifluoromethyl-1-phenylpyrazol-5-ol, reference compound] |  | 6.3 µM | Times less active compared to EDA in the OH radical binding test [4]: 3 times
Cc1nn(-c2ccccc2)c(O)c1N.Cl.O [4d, 4-Amino-3-methyl-1-phenyl-1H-pyrazol-5-ol hydrochloride hydrate] | 5.1 ± 1.3% | 6.85 µM | Cytotoxicity against NHDF cell culture ([2]; 100 µM): neither of the compounds 4d,j showed cytotoxicity; Cytotoxicity against NHDF cell culture ([2]; 100 µM, listed as APH): not cytotoxic
Cl.Nc1c(C(F)(F)F)nn(-c2ccccc2)c1O [4a, 4-Amino-3-(trifluoromethyl)-1-phenyl-1H-pyrazol-5-ol hydrochloride] | 6.9 ± 1.1% | 8.8 µM | 
3-methyl-1-phenyl-2-pyrazolin-5-one [EDA, reference compound] |  | 5.6 µM | BChE % inhibition at 20 μM [1]: 4.6 ± 0.2%; Inhibitory Capability (IC, %) on NHDF ([2]; 1 µM): 3.74 ± 0.05%; Inhibitory Capability (IC, %) on NHDF ([2]; 10 µM): 19.9 ± 0.8%; Inhibitory Capability (IC, %) on NHDF ([2]; 100 µM): 32.8 ± 0.6%
Cl.Nc1c(C(F)(F)F)n[nH]c1O [4e, 4-Amino-3-(trifluoromethyl)-1H-pyrazol-5-ol hydrochloride] | 5.6 ± 1.5% |  | 
